In PMC4151877 (Science (New York, N.Y.), 2014):

Tests used:
NaAtm1 [1] = target: T1, NaAtm1 (Novosphingobium aromaticivorans, UniProt Q2G506); assay: ligand-stimulated ATPase activity; format: biochemical; conditions: ATP hydrolysis
T1 sequence (Q2G506 1-608): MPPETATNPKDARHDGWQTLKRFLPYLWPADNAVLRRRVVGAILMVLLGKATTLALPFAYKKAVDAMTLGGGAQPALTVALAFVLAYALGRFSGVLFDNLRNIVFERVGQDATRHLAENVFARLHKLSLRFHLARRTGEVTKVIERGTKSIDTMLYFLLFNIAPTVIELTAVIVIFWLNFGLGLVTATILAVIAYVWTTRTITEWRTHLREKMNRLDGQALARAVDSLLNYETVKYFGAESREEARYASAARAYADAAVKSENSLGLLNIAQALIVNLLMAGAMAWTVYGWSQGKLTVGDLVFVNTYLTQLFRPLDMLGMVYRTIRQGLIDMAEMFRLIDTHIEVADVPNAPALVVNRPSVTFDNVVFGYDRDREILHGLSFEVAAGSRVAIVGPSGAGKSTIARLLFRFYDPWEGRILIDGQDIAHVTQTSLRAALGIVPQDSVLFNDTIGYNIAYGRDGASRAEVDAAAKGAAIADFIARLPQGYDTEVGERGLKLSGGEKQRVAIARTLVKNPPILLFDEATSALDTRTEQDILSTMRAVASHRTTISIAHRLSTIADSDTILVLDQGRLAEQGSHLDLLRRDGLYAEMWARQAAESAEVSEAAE

NaAtm1 [2] = target: T1, NaAtm1; assay: ligand-stimulated ATPase activity, Michaelis-Menten type analysis; format: biochemical; conditions: ATP hydrolysis; stimulating ligand varied

Row | Structure (SMILES) | ATPase stimulation (NaAtm1 [1]) | Km (NaAtm1 [2])
1 | N[C@@H](CS)C(=O)NCC(=O)O [Cys-Gly] | exhibit stronger ATPase activities relative to Cys-Gly and mono-carboxylic acids | –
2 | CSCC[C@H](N)C(=O)O [Met] | free amino acids Gly and Met to stimulate ATPase activity as effectively as GSH | –
3 | N[C@@H](CCC(=O)N[C@@H](CS)C(=O)O)C(=O)O [γ-Glu-Cys] | – | γ-peptides GSH, γ-Glu-Cys, and ophthalmic acid
